Results from patent US20230146923A1, “COMPOSITIONS AND METHODS FOR INHIBITION AND TARGETING OF P97” (California Institute of Technology, priority 2021, published 2023).
Where a SMILES comes first, the peptide text is derived from it. The star is where a group is joined. Cbz = O=C(OCc1ccccc1)*

Columns and labels:
Format in all cases: cell-based
HCT116 cells [1] = assay: TMT labeling proteomics of HCT116 cells treated with MG132, CB-5083 or NMS-873; settings: for Log2 FC Baculoviral IAP repeat-containing protein 5 (BIRC5) / Log2 FC Cell division cycle protein 20 homolog (CDC20) / Log2 FC F-box only protein 5 (FBXO5) / Log2 FC G1/S-specific cyclin-D1 (CCND1) / Log2 FC Geminin (GMNN) / Log2 FC M-phase inducer phosphatase 2 (CDC25B) / Log2 FC Mitotic checkpoint serine/threonine-protein kinase BUB1 (BUB1) / Log2 FC Myc proto-oncogene protein (MYC) / Log2 FC Origin recognition complex subunit 6 (ORC6) / Log2 FC Ribonucleoside-diphosphate reductase subunit M2 (RRM2) / Log2 FC Securin (PTTG1): compound vs DMSO
Method: HCT116 cells were treated with 1 μM MG132, 2 μM CB-5083 or 4 μM of NMS-874 for 6 h or 24 h, n=2. […] M, C and N represents MG132, CB-5083 and NMS-873, respectively.
As a step toward understanding the differential effects of inhibiting p97 and the proteasome in cancer treatment, the effect of inhibiting p97 was compared to proteasome inhibition using tandem mass tag (TMT) 16-plexed labelling. This technique allowed for capture of alterations in the proteome after exposure to MG132 (proteasome inhibitor) and p97 inhibitors (CB-5083 and NMS-873). […] Samples were pooled together, fractionated into 8 fractions using high pH reverse chromatography, and analyzed using the highly accurate RTS-SPS-MS3 method.

E2F1 = E2F1 levels by qPCR and western blot; settings: HCT116, 6 h
Method: FIGS. 11A-11B show the effect of p97 inhibitors and MG132 on E2F1 expression in HCT116 cells. […] For both qPCR and western blot assays, HCT116 cells were treated for 6 h with DMSO, 1 μM of MG132 (MG), 2 μM of CB-5083 (CB) or 4 μM of NMS-873 (NMS), n=2, **** indicates p<0.0001, *** indicates p<0.001, * indicates p<0.05 according to unpaired t-test.
To determine if the decreased expression of E2F1 target genes was caused by the downregulation of E2F1 levels due to ER stress, qPCR and western blot were used to evaluate E2F1 levels. […] The transcriptional activity of E2F1 can also be repressed through the formation of a complex with the tumor suppressor protein retinoblastoma (RB1) (FIG. 10B). Hyperphosphorylation of RB1 by cyclin-D-cyclin-dependent kinase 4/6 complex (CCND1-CDK4/6) inactivates RB1 and induces the release of the E2F1 from the complex. The newly released E2F1 leads to transcriptional activation of target genes. […] This downregulation of CCND1 and CDK4 was further confirmed by western blot (FIG. 10D). […] Furthermore, the downregulation of CCND1 occurred after the upregulation of ATF3 (FIG. 10F). ATF3 is a stress-inducible gene, which binds to the cyclin D1 promoter and represses its transcription. Therefore, the upregulation of ATF3 potentially contribute to the downregulation of CCND1.

HCT116 cells [2] = assay: qRT-PCR analysis of ATF3, DHFR and CCND1 RNAs; settings: HCT116, qPCR
Method: FIGS. 10A-10F depicts p97 inhibition impairs the transcriptional activity of E2F1 by downregulating the CCND1/CDK complex. […] Data was analyzed using the g:Profiler website. Shading indicates the gene is a potential target of transcription factor c-Myb or E2F1. Blank indicates it is not a target gene. FIG. 10B depicts known regulatory network of the CCND1/CDK/RB1/E2F1 pathway. […] HCT116 cells were treated with 1 μM MG132, 2 μM CB-5083 or 4 μM of NMS-874 for 6 h. FIGS. 10E and 10F show transcriptional activity of E2F1 measured using E2F1 reporter assay. HCT116 cells were transfected with pGL2-AN plasmid (Addgene: 20950) for 24 h. Then cells were plated in 384 well plate and incubated for 16 h. The luminescence were detected after 8 h treatment with MG132, CB-5083 or NMS-873. Data are shown as mean±SD, n=3. f, qRT-PCR analysis of ATF3, DHFR and CCND1 RNAs following treatment with MG132, CB-5083 or NMS-874. HCT116 cells were treated for 2, 6 and 24 h using the same concentration as proteomic and western blot assay (n=4).
To determine if the decreased expression of E2F1 target genes was caused by the downregulation of E2F1 levels due to ER stress, qPCR and western blot were used to evaluate E2F1 levels. […] The transcriptional activity of E2F1 can also be repressed through the formation of a complex with the tumor suppressor protein retinoblastoma (RB1) (FIG. 10B). […]

Securin = Securin degradation (CHX chase) in HCT116 cells; settings: HCT116, 1 μM MG132, 50 μM CHX
Method: The concentration of MG132, CB-5083 and Baf A1 was 1 μM, 2 μM and 10 μM, respectively. […] FIGS. 13D-13E depict the half-life of Securin in HCT116 cells. HCT116 cells were treated with 1 μM of MG132, 2 μM of CB-5083, 1 μM of MG132 plus 2 μM of CB-5083 or DMSO. […] Cells were pretreated with […] for 1 h. […] For FIGS. 13B-13G, D, B, M, C and N represents DMSO, Baf A1, MG132, CB-5083 and NMS-873, respectively. Data are shown as mean±SD. Statistical analysis was performed using one-way ANOVA.

For CC(C)C[C@@H](C=O)NC(=O)[C@H](CC(C)C)NC(=O)[C@H](CC(C)C)NC(=O)OCc1ccccc1 [MG132] (Cbz-Leu-Leu-Leu-aldehyde), the “TAX1BP1 and p62 protein levels” value (HCT116 cells [1]; HCT116, 6 h and 24 h) was “upregulated”, the “Log2 FC Baculoviral IAP repeat-containing protein 5 (BIRC5)” value (HCT116 cells [1]; HCT116, 6 h treatment) was 0.6 and the “Log2 FC Cell division cycle protein 20 homolog (CDC20)” value (HCT116 cells [1]; HCT116, 6 h treatment) was 0.8. The “Log2 FC F-box only protein 5 (FBXO5)” value (HCT116 cells [1]; HCT116, 6 h treatment) was 0.2, the “Log2 FC G1/S-specific cyclin-D1 (CCND1)” value (HCT116 cells [1]; HCT116, 6 h treatment) was 0.2 and the “Log2 FC Geminin (GMNN)” value (HCT116 cells [1]; HCT116, 6 h treatment) was 0.9. The “Log2 FC M-phase inducer phosphatase 2 (CDC25B)” value (HCT116 cells [1]; HCT116, 6 h treatment) was 0.3, the “Log2 FC Mitotic checkpoint serine/threonine-protein kinase BUB1 (BUB1)” value (HCT116 cells [1]; HCT116, 6 h treatment) was 1.2 and the “Log2 FC Myc proto-oncogene protein (MYC)” value (HCT116 cells [1]; HCT116, 6 h treatment) was 1.2. The “Log2 FC Origin recognition complex subunit 6 (ORC6)” value (HCT116 cells [1]; HCT116, 6 h treatment) was 0.3, the “Log2 FC Ribonucleoside-diphosphate reductase subunit M2 (RRM2)” value (HCT116 cells [1]; HCT116, 6 h treatment) was 0.6 and the “Log2 FC Securin (PTTG1)” value (HCT116 cells [1]; HCT116, 6 h treatment) was 1.4. For the same compound, the “Four XBP1 activated genes/proteins (DNAJB11, SRPR, SRPRB, SYVN1), Log2FC” value (HCT116 cells [1]; HCT116, 24 h of treatment, p<0.05) was “not”, the “Log2 FC Baculoviral IAP repeat-containing protein 5 (BIRC5)” value (HCT116 cells [1]; HCT116, 24 h treatment) was 1.0 and the “Log2 FC Cell division cycle protein 20 homolog (CDC20)” value (HCT116 cells [1]; HCT116, 24 h treatment) was 1.1. The “Log2 FC F-box only protein 5 (FBXO5)” value (HCT116 cells [1]; HCT116, 24 h treatment) was 1.5, the “Log2 FC G1/S-specific cyclin-D1 (CCND1)” value (HCT116 cells [1]; HCT116, 24 h treatment) was 0.4 and the “Log2 FC Geminin (GMNN)” value (HCT116 cells [1]; HCT116, 24 h treatment) was 1.4. The “Log2 FC M-phase inducer phosphatase 2 (CDC25B)” value (HCT116 cells [1]; HCT116, 24 h treatment) was −0.2, the “Log2 FC Mitotic checkpoint serine/threonine-protein kinase BUB1 (BUB1)” value (HCT116 cells [1]; HCT116, 24 h treatment) was 1.4 and the “Log2 FC Myc proto-oncogene protein (MYC)” value (HCT116 cells [1]; HCT116, 24 h treatment) was 0.2. For the same compound, the “Log2 FC Origin recognition complex subunit 6 (ORC6)” value (HCT116 cells [1]; HCT116, 24 h treatment) was 1.0, the “Log2 FC Ribonucleoside-diphosphate reductase subunit M2 (RRM2)” value (HCT116 cells [1]; HCT116, 24 h treatment) was 1.2 and the “Log2 FC Securin (PTTG1)” value (HCT116 cells [1]; HCT116, 24 h treatment) was −0.1. For the same compound, the “CCND1 (cyclin D1) and CDK4/6 protein levels” value (HCT116 cells [1]; HCT116, proteomic analysis (TMT)) was “upregulated”, the “E2F1 RNA levels” value (E2F1; qPCR, 1 μM MG132, 2 μM CB-5083, 4 μM NMS-873) was “strongly downregulated” and the “Protein level of E2F1” value (E2F1; western blot) was “increased”. The “mRNA levels of the E2F1 target gene DHFR” value (HCT116 cells [2]) was “reducing the mRNA level of DHFR” and the “Securin protein degradation from the cytosol and nucleus” value (Securin) was “blocked”.
